Like-named read-outs stand apart in the source and are kept apart here.
What was measured:
[1] = Aqueous solubility; details: aqueous solubility
[2] = biological target: full-length human Plk1 (Homo sapiens (Human), UniProt P53350); test: ELISA-based Plk1 PBD-binding inhibition assay; details: for IC50: Plk1 PBD, n = 3 unless noted
Experimental: An ELISA-based PBD-binding inhibition assay was performed essentially as described previously. […] The wells were washed once with PBS+0.05% Tween20 (PBST) and incubated with 200 μl of PBS plus 1% BSA (blocking buffer) for 1 h to prevent non-specific binding. HEK293A lysates expressing HA-EGFP-Plk1 were prepared in a TBSN [20 mM Tris-HCl (pH 8.0), 150 mM NaCl, 0.5% NP-40, 5 mM EGTA, 2 mM MgCl2, 1.5 mM EDTA, and protease inhibitor cocktail (Roche)]+20% DMSO buffer (˜20 μg total lysates in 100 μl buffer), mixed with the indicated amount of the competitors (p-T78 peptide and its derivative compounds) for 30 min, provided onto the biotinylated peptide-coated ELISA wells, and then incubated with constant rocking for 1 h at 25° C. Following the incubation, ELISA plates were washed 5 times with PBST. To detect bound HA-EGFP-Plk1, the plates were probed for 2 h with 100 μl/well of anti-HA antibody at a concentration of 0.5 μg/ml in the blocking buffer and then washed 5 times. The plates were further probed for 1 h with 100 μl/well of HRP-conjugated secondary antibody (GE Healthcare) at a 1:1,000 dilution in the blocking buffer. The plates were washed 5 times with PBST and incubated with 100 μl/well of 3,3′,5,5′-tetramethylbenzidine solution (Sigma-Aldrich, St. Louis, MO) as substrate until a desired absorbance was reached. The reactions were stopped by the addition of 100 μl/well of stop solution (Cell Signaling Technology, Danvers, MA). The optical density (O.D.) was measured at 450 nm by using a Perkin-Elmer Enspire Multimode Plate reader (PerkinElmer, Inc., Boston, MA). Data obtained from more than three independent experiments were analyzed by GraphPad (San Diego, CA) Prism software version 7.
ELISA-based PBD-binding Inhibition Assay. […] The reaction products were measured at 450 nm by using a Perkin-Elmer Enspire Multimode Plate reader (PerkinElmer, Inc., Boston, MA). Data obtained from more than three independent experiments were analyzed by GraphPad (San Diego, CA) Prism software version 7.

[3] = test system: multiple myeloma-derived L363 cells; test: MTS cell proliferation assay in L363 cells; format: cell-based; details: for GI50: read-out: Cell efficacy, GI50 ± sd
Experimental: MTS Assay. […] 96™ AQueous One Solution Cell Proliferation Assay (MTS) kit (Promega, WI). Briefly, asynchronously growing L363 cells cultured in a 96-well plate were treated with the indicated compounds for 48 h.

[4] = test system: HeLa cells; test: Mitotic arrest and antiproliferation in HeLa cells (DAPI staining, cell counts); format: cell-based; details: for population of rounded cells with mitotically arrested or apoptotic chromosome morphologies: 25 μM, 12 h
Experimental: HeLa cells were cultured as recommended by the American Type Culture Collection (ATCC). […] Immunostaining was carried out using anti-Plk1 (Santa Cruz Biotechnology, Santa Cruz, CA), anti-Cep63 (MilliporeSigma), anti-CREST (Antibodies Incorp, Davis, CA), and anti-α-tubulin (Sigma, St. Louis, MO) antibodies.
To quantify fluorescence signal intensities, images were acquired under the same settings and the images obtained after the maximum-intensity projection of z-stacks were analyzed using the Zeiss ZEN v2.1 software (Carl Zeiss Microscopy, LLC). All the quantifications were performed with randomly chosen fields from at least three independent experiments. All values are given as mean±s. D. P values were calculated by unpaired t test from the mean data of each group in Graph Pad Prism (***P<0.001). The statistical details including the definitions and value of n (e.g., number of experimental replicates, cells, etc.) And standard deviations are provided herein.

[5] = Microsomal metabolic stability, rat liver microsomes (RLM); details: rat liver microsomes
[6] = PAMPA permeability
[7] = Homo sapiens, L-363, 48 h treatment

Chain of full-length human Plk1 (P53350 whole entry): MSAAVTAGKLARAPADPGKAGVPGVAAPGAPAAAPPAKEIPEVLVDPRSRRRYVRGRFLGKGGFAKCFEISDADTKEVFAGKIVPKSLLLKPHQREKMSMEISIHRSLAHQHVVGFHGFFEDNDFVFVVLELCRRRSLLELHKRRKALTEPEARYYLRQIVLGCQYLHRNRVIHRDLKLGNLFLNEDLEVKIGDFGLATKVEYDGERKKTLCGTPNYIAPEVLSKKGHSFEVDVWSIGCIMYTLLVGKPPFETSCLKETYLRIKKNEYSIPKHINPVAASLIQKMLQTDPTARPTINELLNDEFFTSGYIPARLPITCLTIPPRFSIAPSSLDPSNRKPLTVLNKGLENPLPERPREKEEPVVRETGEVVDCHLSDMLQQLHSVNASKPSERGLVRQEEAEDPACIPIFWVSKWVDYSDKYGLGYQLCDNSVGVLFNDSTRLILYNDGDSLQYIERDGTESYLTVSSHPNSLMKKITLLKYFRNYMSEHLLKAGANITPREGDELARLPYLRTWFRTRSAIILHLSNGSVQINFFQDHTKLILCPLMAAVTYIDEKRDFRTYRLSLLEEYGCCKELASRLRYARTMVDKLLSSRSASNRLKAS

## CC(C)CCn1c(=O)c2ccccc2n2c(=S)[nH]nc12 [compound 25]
[1]
  Solub.: 8.0 µg/mL
[2]
  IC50: 1.73 ± 0.08 µM

## CCCn1c(=O)c2sc(C)cc2n2c(Sc3c(C(F)(F)F)ncn3C)nnc12 [76 (NCK174), 7-methyl-1-((1-methyl-4-(trifluoromethyl)-1H-imidazol-5-yl)thio)-4-propylthieno[2,3-e][1,2,4]triazolo[4,3-a]pyrimidin-5(4H)-one]
[3]; [7]
  GI50: > 400 µM

## CCCn1c(=O)c2sc(C)cc2n2c(Sc3c([N+](=O)[O-])ncn3C)nnc12 [75 (NCK173), 7-methyl-1-((1-methyl-4-nitro-1H-imidazol-5-yl)thio)-4-propylthieno[2,3-e][1,2,4]triazolo[4,3-a]pyrimidin-5(4H)-one]
[3]; [7]
  GI50: 4.14 ± 0.31 µM

## O=c1c2cc(F)ccc2n2c(=S)[nH]nc2n1CCc1ccncc1 [compound 85]
[1]
  Solub.: 10.9 µg/mL
[3]; 48 h treatment
  GI50: 3.11 µM
[4]
  population of rounded cells with mitotically arrested or apoptotic chromosome morphologies: induced Plk1 delocalization and mitotic arrest at a level similar to those of compound 75
[5]
  t1/2 (min, RLM): >30 min

## O=c1c2cc(F)ccc2n2c(=S)[nH]nc2n1CCc1ccc(Cl)cc1 [Example 43, 4-(4-chlorophenethyl)-7-fluoro-1-thioxo-2,4-dihydro-[1,2,4]triazolo[4,3-a]quinazolin-5(1H)-one]
[3]; 48 h treatment
  Cell efficacy, GI50 ± sd (μM): failed to induce any a detectable level of cellular response
[4]
  population of rounded cells with mitotically arrested or apoptotic chromosome morphologies: failed to show any of these phenotypes

## Cc1cccc(-n2c(=O)c3ccccc3n3c(=S)[nH]nc23)c1C [compound 33]
[2]
  IC50: 1.85 ± 0.12 µM

## Cc1cc2c(s1)c(=O)n(CC1CC1)c1nnc(Sc3c([N+](=O)[O-])ncn3C)n21 [85 (NCK182), 4-(cyclopropylmethyl)-7-methyl-1-((1-methyl-4-nitro-1H-imidazol-5-yl)thio)thieno[2,3-e][1,2,4]triazolo[4,3-a]pyrimidin-5(4H)-one]
[3]; [7]
  GI50: 3.11 µM

## CCCCCn1c(=O)c2ccccc2n2c(=S)[nH]nc12 [compound 24]
[1]
  Solub.: 4.2 µg/mL
[2]
  IC50: 1.97 ± 0.11 µM

## C=CCn1c(=O)c2ccccc2n2c(=S)[nH]nc12 [compound 22]
[1]
  Solub.: 19.4 µg/mL
[2]
  IC50: 1.31 ± 0.03 µM

## CCCCn1c(=O)c2ccccc2n2c(=S)[nH]nc12 [compound 23]
[1]
  Solub.: 8.5 µg/mL
other
  PAMPA: 77.5 ×10⁻⁶ cm/s
[5]
  t1/2 (min, RLM): >30 min
[2]
  IC50: 1.03 ± 0.14 µM

## CCCn1c(=O)c2scc(C)c2n2c(Sc3c([N+](=O)[O-])ncn3C)nnc12 [74 (NCK170), 8-methyl-1-((1-methyl-4-nitro-1H-imidazol-5-yl)thio)-4-propylthieno[2,3-e][1,2,4]triazolo[4,3-a]pyrimidin-5(4H)-one]
[3]; [7]
  GI50: 25.8 ± 0.26 µM

## CCCn1c(=O)c2sc(C)cc2n2c(Sc3c(S(N)(=O)=O)ncn3C)nnc12 [77 (NCK175), 1-methyl-5-((7-methyl-5-oxo-4-propyl-4,5-dihydrothieno[2,3-e][1,2,4]triazolo[4,3-a]pyrimidin-1-yl)thio)-1H-imidazole-4-sulfonamide]
[3]; [7]
  GI50: > 400 µM

## COCCCn1c(=O)c2ccccc2n2c(=S)[nH]nc12 [compound 28]
[1]
  Solub.: 31.2 µg/mL
[2]
  IC50: 1.75 ± 0.19 µM

## CCCn1c(=O)c2ccccc2n2c(=S)n(CC(=O)c3ccccc3)nc12 [compound 39]
[2]
  IC50: > 50 µM

## CCOCCCn1c(=O)c2ccccc2n2c(=S)[nH]nc12 [compound 29]
[1]
  Solub.: 15.5 µg/mL
[2]; ELISA assay
  lower IC50 compared to 14: 29%
[2]
  IC50: 1.68 ± 0.11 µM

## CC(=O)Nc1ccc2c(c1)c(=O)n(CCc1ccccc1)c1n[nH]c(=S)n21 [Example 14, N-(5-oxo-4-phenethyl-1-thioxo-1,2,4,5-tetrahydro-[1,2,4]triazolo[4,3-a]quinazolin-7-yl)acetamide]
[3]; 48 h treatment
  Cell efficacy, GI50 ± sd (μM): failed to induce any a detectable level of cellular response
[4]
  population of rounded cells with mitotically arrested or apoptotic chromosome morphologies: failed to show any of these phenotypes

## N#Cc1ccccc1CC(=O)NCCCn1c(=O)c2cc(F)ccc2n2c(=S)[nH]nc12 [compound 133, 2-(2-cyanophenyl)-N-(3-(7-fluoro-5-oxo-1-thioxo-1,2-dihydro-[1,2,4]triazolo[4,3-a]quinazolin-4(5H)-yl)propyl)acetamide]
[1]
  Solub.: 20.9 µg/mL
[5]
  t1/2 (min, RLM): >30 min
[6]
  PAMPA: 156 ×10⁻⁶ cm/s

## O=C(Cc1ccccn1)NCCCn1c(=O)c2cc(F)ccc2n2c(=S)[nH]nc12 [compound 136, N-(3-(7-Fluoro-5-oxo-1-thioxo-1,2-dihydro-[1,2,4]triazolo[4,3-a]quinazolin-4(5H)-yl)propyl)-2-(pyridine-2-yl)acetamide]
[1]
  Solub.: 41.4 µg/mL
[5]
  t1/2 (min, RLM): >30 min
[6]
  PAMPA: 68.0 ×10⁻⁶ cm/s

## CCCn1c(=O)c2cccc(F)c2n2c(Sc3c([N+](=O)[O-])ncn3C)nnc12 [73 (NCK167), 9-fluoro-1-((1-methyl-4-nitro-1H-imidazol-5-yl)thio)-4-propyl-[1,2,4]triazolo[4,3-a]quinazolin-5(4H)-one]
[3]; [7]
  GI50: 14 ± 0.39 µM

## O=C(Cc1cccnc1)NCCCn1c(=O)c2cc(F)ccc2n2c(=S)[nH]nc12 [compound 137, N-(3-(7-Fluoro-5-oxo-1-thioxo-1,2-dihydro-[1,2,4]triazolo[4,3-a]quinazolin-4(5H)-yl)propyl)-2-(pyridine-3-yl)acetamide]
[1]
  Solub.: 31.8 µg/mL
[5]
  t1/2 (min, RLM): >30 min
[6]
  PAMPA: 21.0 ×10⁻⁶ cm/s

## CCCn1c(=O)c2cccc(F)c2n2c(=S)[nH]nc12 [compound 139, 9-fluoro-4-propyl-1-thioxo-2,4-dihydro-[1,2,4]triazolo[4,3-a]quinazolin-5(1H)-one]
[4]; 100 μM
  induction of mitotic arrest (rounded cells with apoptotic or aberrant chromosome morphologies): lacked a detectable level of cellular response
